Experimental data: patent US11969730B2, “Apparatus for sensor-based examination of biological cells” (FRAUNHOFER-GESELLSCHAFT ZUR FÖRDERUNG DER ANGEWANDTEN …, priority 2017, dated 2024)

What was measured:
[1] = system: HaCaT cells; assay: impedimetric toxicity study (cytotoxicity assay) with confluent HaCaT cells on electrode array; type: cell-based, human; settings: 32 kHz; increasing concentrations; applied 24 h after thawing or seeding; 37° C.; cryopreserved (7 days, −80° C.) and newly seeded cells
Procedure: IZI at 32 kHz for confluent HaCaT cells that were incubated (cytotoxicity assay) at the time t=0 h with increasing concentrations of CdCl2.
The cell density was identical in both cases. Increasing concentrations of the heavy metal salt CdCl2 served as the chemical model toxin. The assay was carried out 24 h after thawing, respectively seeding.
The cell response to the addition of CdCl2 is documented with reference to the time profile of the normed impedance at a measurement frequency of 32 kHz. […] The time developments, also highly characteristic of the impedance after the addition of CdCl2 to the confluent cell layers for every concentration of CdCl2 for the cryopreserved cells are indistinguishably similar to those of the newly seeded cells.

[2] = system: HaCaT cells; assay: impedimetric readout of adhesion of HaCaT cells to the electrode surface after cryopreservation and thawing; type: cell-based, human; settings: 10% by volume in the freezing medium; cryopreservation over 5 weeks at −80° C.; capacitance at 40 kHz
Procedure: The cell density on the sensor surface is 450,000 cells/cm^2 (T=37° C.) in both cases. The decrease in the capacitance reflects the increasing electrode coverage.
To check the viability state of the frozen cells and then thawed again, the kinetics of the adhesion of human skin cells (keratinocytes, HaCaT cells) to the electrode surface (of gold) after a cryopreservation of more than five weeks at −80° C. were tracked directly after thawing (revitalization) with time resolution via an impedimetric readout (see FIG. 2A). The time development of the capacitance C of the total system at a measurement frequency of 40 kHz is in linear dependence on the occupation of the electrode with adherent cells and thus reflects the progressing process of the cell adhesion.
The culture medium is modeled on the freezing medium after revitalizing the cells in the chemical composition. Variable DMSO contents were selected to freeze the cells to be able to directly optimize the freezing medium for the respective cell line.

Row | Structure (SMILES) | time profile of the normed impedance after addition of CdCl2 [1] | effect on the cell viability after thawing [2]
1 | [Cl][Cd][Cl] [CdCl2] | decreases in dependence on the dosage | 
2 | C[S+](C)[O-] [DMSO] |  | no negative effect
